Earlier results, collected in patent publication US20230346652A1, “Foaming Hand Sanitizer with High Alcohol Content” (Ele' Corporation, priority 2021, published 2023).

Experiments:
[1] = test system: certain non-enveloped viruses

SMILES: CCO [ethanol]
- ethanol concentration necessary to kill within 30 seconds [1]: up to 95%
- ethanol concentration effective within 30 seconds (enveloped viruses): less than 75 % (by weight)
